For orientation: EC50 means the concentration needed to bring the measured effect to its halfway point.

Counter-ions that a name gives are not always drawn. Like-named read-outs stand apart in the source and are kept apart here.

From EP0977755B1, “HETEROCYCLIC COMPOUNDS AND THEIR PREPARATION AND USE” (NOVO NORDISK A/S, priority 1997, dated 1998) come the findings set out here.

In the experiment the target is T1, m1 muscarinic receptor (Rattus norvegicus, UniProt P08482).
T1 construct: expressed in transfected cells; host or cells: A9 L cells (mouse fibroblast line)
T1 sequence (P08482 1-460): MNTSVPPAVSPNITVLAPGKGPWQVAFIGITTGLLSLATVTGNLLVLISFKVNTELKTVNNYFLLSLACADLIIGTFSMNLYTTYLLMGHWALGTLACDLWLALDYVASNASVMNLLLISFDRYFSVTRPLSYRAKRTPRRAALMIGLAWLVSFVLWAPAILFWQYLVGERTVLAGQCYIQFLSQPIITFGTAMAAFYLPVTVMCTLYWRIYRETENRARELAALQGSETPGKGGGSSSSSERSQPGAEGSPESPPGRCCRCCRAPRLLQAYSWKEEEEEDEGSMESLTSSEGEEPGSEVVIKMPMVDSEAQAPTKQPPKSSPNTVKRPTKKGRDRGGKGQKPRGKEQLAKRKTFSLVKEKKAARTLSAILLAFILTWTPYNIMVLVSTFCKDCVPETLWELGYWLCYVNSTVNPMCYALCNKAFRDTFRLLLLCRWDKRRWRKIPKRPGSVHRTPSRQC
Nature of the experiment: IP hydrolysis in A9 L cells cloned with the genetic m1 muscarinic receptor. The format is cell-based, human and rat. To be noted: for Emax: A9L-m1, 0.75 h, read-out: % PI (efficacy); for Emax / % PI (efficacy): percentage of total [3H]IP accumulated in the presence of 100 µM carbachol stimulation, 37°C for 45 min; for EC50: IP hydrolysis, seven point curves, three separate experiments; for % PI (efficacy): 45 min.

Procedure: IP hydrolysis in A9 L cells cloned with the genetic m, muscarinic receptor: A9 L cells transfected with human and rat m, muscarinic receptors (Dörje et al., 1991; Jones et al., 1988), were cultured to confluence in 75-ml flasks containing Dulbecco's modified essential media. Cells were prelabeled with 1 µCi/ml of myo(2-[^3H]inositol (Amersham Inc., 16.3 Ci/mmol) for 48 hr before assaying. On the day of assay, cells were detached using a 30-sec exposure to 0.25% trypsin in 1 mM EDTA. The cells were collected by centrifugation (300 x g for 5 min) and resuspended in oxygenated HEPES buffer containing 10 mM LiCl (NaCl 142 mM, KCl 5.6 mM, CaCl2 2.2 mM, MgCl2 1 mM, NaHCO3 3.6 mM, D-glucose 5.6 mM and Na^+ HEPES 30 mM, pH 7.4). Cells were incubated at 37°C for 45 min in the presence of varying concentrations of test compounds. Total IP hydrolysis was determined using the method of Schoepp and Johnson (1988). […] Half-maximal (EC50) values were determined from the mean (±S.D.) of seven point curves determined from three separate experiments.

`CC(C)C(C#Cc1ccsc1)Oc1nsnc1C1CN2CCC1C2` (mixture of isomers) [Compound 16, Exo (+-) 3-(3-(1-(3-Thienyl)-4-methyl-1-pentyn-3-yloxy)-1 ,2,5-thiadiazol-4-yl)-1-azabicyclo[2.2.1]heptane, (+)-tartrate]: the Emax turned out to be 56%. For the same compound, the EC50 (read-out: EC50) was found to be 14 nM.
For `C(#Cc1ccccc1)COc1nsnc1[C@H]1CN2CC[C@@H]1C2` (racemic) [Compound 1, Endo (+-) 3-(3-(3-Phenyl-2-propyn-1-yloxy)-1,2,5-thiadiazol-4-yl)-1-azabicyclo[2 2.1]heptane,(+)--tartrate], the Emax is 80%. Where the note is “read-out: EC50”, the EC50 came out at 210 nM.
On to `Fc1ccc(C#CCOc2nsnc2[C@H]2CN3CC[C@@H]2C3)cc1` (racemic) [Compound 2, Endo (+-) 3-(3-(3-(4-Fluorophenyl)-2-propyn-1-yloxy)-1,2,5-thiadiazol-4-yl)-1-azabicyclo[2.2.1]heptane,(+)-tartrate], for which the Emax came out at 74%. In addition, the EC50 (read-out: EC50) amounted to 1800 nM.
The matching figures for `C(#Cc1ccccc1)COc1nsnc1C1CN2CCC1C2` (racemic) [Compound 13, Exo (+-) 3-(3-(3-Phenyl-2-propyn-1-yloxy)-1.2.5-thiadlazol-4-yl)-1-azabicyclo[2 2.1]heptane, (+)-tartrate]: 100% and 0.7 nM.
Consider `C(#Cc1ccccc1)COc1nsnc1C1CN2CCC1CC2` (racemic) [Compound 53, (+-)3-(3-(3-Phenyl-2-propyn-1-yloxy)-1,2,5-thiadiazol-4-yl)-1-azabicyclo[2.2.2]octane, oxalate], for which the EC50 (EC50, nM) was 13 nM.
Take `Fc1ccc(C#CCOc2nsnc2C2CN3CCC2CC3)cc1` (racemic) [Compound 54, (+-) 3-(3-(3-(4-Fluorophenyl)-2-propyn-1-yloxy)-1,2,5-thiadiazol-4-yl)-1-azabicyclo[2.2.2]octane, oxalate]: the EC50 (read-out: EC50) amounted to 224 nM.
`Fc1ccc(C#CCOc2nsnc2[C@H]2CN3CC[C@@H]2C3)cc1` (single isomer, unassigned) [Compound 3, Endo (α)-3-(3-(3-(4-Fluorophenyl)-2-propyn-1-yloxy)-1.2.5-thiadiazol-4-yl)-1-azabicyclo[2.2.1]heptane.(+)-tartrate]: the Emax is 81%. Besides, under “read-out: EC50”, the EC50 worked out at 95 nM.
Take `C(#Cc1ccccc1)COc1nsnc1[C@H]1CN2CC[C@@H]1C2` (single isomer, unassigned) [Compound 4, Endo (α)-3-(3-(3-Phenyl-2-propyn-1-yloxy)-1,2,5-thiadiazol-4-yl)-1-azabicyclo[2.2.1]heptane, (+)-tartrate]: the “% PI (efficacy)” value stood at 77%. For the same compound, the EC50 (read-out: EC50) came to 159 nM.
The matching figures for `COc1cccc(C#CCOc2nsnc2[C@H]2CN3CC[C@@H]2C3)c1` (single isomer, unassigned) [Compound 5, Endo (α)-3-(3-(3-(3-Methoxyphenyl)-2-propyn-1-yloxy)-1,2,5-thiadiazol-4-yl)-1-azabicyclo[2.2.1]heptane, (+)-tartrate]: 73% and 42 nM.
Turning to `C(#Cc1ccsc1)COc1nsnc1[C@H]1CN2CC[C@@H]1C2` (single isomer, unassigned) [Compound 7, Endo (α)-3-(3-[3-(3-Thienyl)-2-propyn-1-yloxy]-1,2,5-thiadiazol-4-yl)-1-azabicyclo[2.2 1]heptane, (+)-tartrate], the Emax is 108%. The EC50 (read-out: EC50) stood at 380 nM.
For the compound `C(#Cc1cccs1)COc1nsnc1[C@H]1CN2CC[C@@H]1C2` (single isomer, unassigned) [Compound 8, Endo (α)-3-(3-(3-(2-Thienyl)-2-propyn-1-yloxy)-1,2,5-thiadiazol-4-yl)-1-azabicyclo[2 2 1]heptane. (+)-tartrate], the Emax amounted to 91%. Further, the EC50 (read-out: EC50) came out at 670 nM.
In the case of `Fc1ccc(C#CCOc2nsnc2[C@H]2CN3CC[C@@H]2C3)cc1` (single isomer, unassigned) [Compound 9, Endo (β)-3-(3-(3-(4-Fluorophenyl)-2-propyn-1-yloxy)-1.2.5-thiadiazol-4-yl)-1-azabicyclo[2 2.1]heptane, (-)-tartrate], the “% PI (efficacy)” value turned out to be 68%. Also, the EC50 (read-out: EC50) was found to be 38 nM.
For the compound `COc1cccc(C#CCOc2nsnc2[C@H]2CN3CC[C@@H]2C3)c1` (single isomer, unassigned) [Compound 10, Endo (β)-3-(3-(3-(3-Methoxyphenyl)-2-propyn-1-yloxy)-1,2,5-thiadiazol-4-yl)-1-azabicyclo[2.2.1]heptane, (-)-tartrate], the Emax was found to be 57%. In addition, the EC50 (read-out: EC50) came to 75 nM.
For `C(#Cc1ccccc1)COc1nsnc1[C@H]1CN2CC[C@@H]1C2` (single isomer, unassigned) [Compound 11, Endo (β)-3-(3-(3-Phenyl-2-propyn-1-yloxy)-1,2,5-thiadiazol-4-yl)-1-azabicyclo[2.2.1]heptane, (+)-tartrate], in that order: 64% and 98 nM.
As to `C(#Cc1ccccc1)CSc1nsnc1[C@@H]1CN2CCC[C@H]1C2` [Compound 20, Endo (5R,6S)-6-(3-(3-Phenyl-2-propyn-1-ylthio)-1,2,5-thiadiazol-4-yl)-1-azabicyclo[3,2 1]octane, (+)-tartrate], the Emax was 98%. In addition, the concentration for a half-maximal effect (EC50) (read-out: EC50) was determined as 1 nM.
For `Fc1cccc(C#CCSc2nsnc2[C@@H]2CN3CCC[C@H]2C3)c1` [Compound 21, Endo (5R,6S)-6-(3-(3-(3-Fluorophenyl)-2-propyn-1-ylthio)-1,2,5-thiadiazol-4-yl)-1-azabicyclo[3.2.1]octane, (+)-tartrate], in that order: 67% and 105 nM.
Consider `C(#Cc1ccsc1)CSc1nsnc1[C@@H]1CN2CCC[C@H]1C2` [Compound 24, Endo (5R,6S)-6-(3-(3-(3-Thienyl)-2-propyn-1-ylthio)-1,2,5-thiadiazol-4-yl)-1-azabicyclo[3.2.1]octane, (+)-tartrate], for which the Emax amounted to 105%. The EC50 (read-out: EC50) was 300 nM.
As for `C(#Cc1cccs1)CSc1nsnc1[C@@H]1CN2CCC[C@H]1C2` [Compound 25, Endo (5R,6S)-6-(3-(3-(2-Thienyl)-2-propyn-1-ylthio)-1,2,5-thiadiazol-4-yl)-1-azabicyclo[3.2.1]octane, (+)-tartrate], the Emax turned out to be 69%. In addition, the concentration for a half-maximal effect (EC50) (read-out: EC50) turned out to be 210 nM.
Take `C(#Cc1ccccc1)COc1nsnc1[C@@H]1CN2CCC[C@H]1C2` [Compound 26, Endo (5R,6S)-6-(3-(3-Phenyl-2-propyn-1-yloxy)-1,2,5-thiadiazol-4-yl)-1-azabicyclo[3 2 1]octane, (+)-tartrate]: the Emax stood at 93%. Moreover, the EC50 (read-out: EC50) turned out to be 280 nM.
Consider `Fc1ccc(C#CCOc2nsnc2[C@@H]2CN3CCC[C@H]2C3)cc1` [Compound 27, Endo (5R,6S)-6-(3-(3-(4-Fluorophenyl)-2-propyn-1-yloxy)-1,2,5-thiadiazol-4-yl)-1-azabicyclo[3.2.1]octane, (+)-tartrate], for which the Emax came out at 79%. Besides, the concentration for a half-maximal effect (EC50) (read-out: EC50) was 187 nM.
The matching figures for `COc1cccc(C#CCOc2nsnc2[C@@H]2CN3CCC[C@H]2C3)c1` [Compound 28, Endo (5R,6S)-6-(3-(3-(3-Methoxyphenyl)-2-propyn-1-yloxy)-1,2,5-thiadiazol-4-yl)-1-azabicyclo[3.2.1]octane, (+)-tartrate]: 97% and 22 nM.
